Source: US12029730B2, “Pharmaceutical composition for preventing or treating cancer, containing N-1H-benzimidazol-2-yl-3-(1H-pyrrole-1-yl)benzamide as active ingredient” (KOREA INSTITUTE OF RADIOLOGICAL & MEDICAL SCIENCES, priority 2018, dated 2024)

Legend:
Assay type in all cases: cell-based, human
MCF7 cells [1] = assay: WST-8 cell viability assay, breast cancer cell line MCF7; details: for cell viability, MCF7: 3.70, 11.11, 33.33 and 100 μM
Protocol: (§1) In addition, the cell line in this experiment was distributed from ATCC (American Type Culture Collection; Manassas, VA). Human-derived tumor cell lines, breast cancer cell lines MCF7 and T47D was cultured in DMEM medium containing 10% fetal bovine serum (FBS; HyClone, South Logan, UT) and 1% penicillin/streptomycin (Corning, NY, USA) at 37° C. and 5% CO2, and the BT549 breast cancer cell line was cultured in RPMI 1640 (Welgene, Daegu, Korea) as a medium used under the same conditions. Human-derived normal cell line MCF10A was cultured in DMEM/F12 (Invitrogen) medium containing 5% horse serum (Invitrogen), 1% penicillin/streptomycin, 20 ng/ml EGF (Peprotech, London, UK), […] (Sigma-Aldrich, MO, USA), 100 ng/ml cholera toxin (Cholera Toxin, Sigma-Aldrich) and 10 μg Insulin (Sigma-Aldrich) at 37° C. and 5% CO2.
(§2) Briefly, MCF7 and MCF10A cells were seeded into 96-well plates, incubated for 24 hours, and then was treated with 42 inhibitor candidates. Among the compounds, the multi-AGC kinase inhibitor AT13148 was used as a positive control. Thereafter, the absorbance was measured at 450 nm using a Versamax microplate reader (Molecular Devices, CA, USA), and the results of the experiment were shown in FIG. 1A.
(§3) In order to confirm whether the selected MKI-1 can kill only cancer cells, an experiment was performed by treating with MKI-1 and measuring whether the cell viability of breast cancer cell lines and normal cell lines was changed. WST-8 analysis (Cyto X™ cell viability assay kit, LPS solution, Daejeon, Korea) was performed according to the manufacturer's protocol. Cancer cells MCF7 and BT549 and normal cell line MCF10A cells were inoculated into a 96-well plate, cultured for 24 hours, and then treated with MASTL kinase inhibitors at various concentrations (3.70, 11.11, 33.33 and 100 μM). Thereafter, the absorbance was measured at 450 nm using a Versamax micro plate reader (Molecular Devices, CA, USA), and the results were shown in FIG. 6.

MCF10A cells = assay: WST-8 cell viability assay, normal cell line MCF10A; details: for cell viability, normal cell line MCF10A: 3.70, 11.11, 33.33 and 100 μM, FIG. 6
Protocol: as §1, §2, §3

phospho-H3 (S10) = assay: Western blotting of phosphorylated H3 in MCF7 cells; details: western blot, FIG. 5
Protocol: 20 μg of protein was separated by SDS-PAGE electrophoresis and transferred to a PVDF membrane, and the following specific antibodies were used: rabbit polyclonal antibody MASTL (Abgent); phospho-ENSA (Ser67)/ARPP19 (Ser62) (#5240), ENSA (#11915S), cleaved PARP (Asp214) (#9541), AKT (#9272), phospho-AKT (ser473) (#9271), phospho-GSK-3α/β (Ser21/9) (#9331), phospho-p70S6K (The 288) (#9205) and phospho-Chk2 (Thr68) (#2661; Cell Signaling Technology, MA); p70S6K (sc-230; Santa Cruz Biotechnology, CA, USA), phospho-H3 (S10) (06-570, Merck, NJ); mouse monoclonal antibody caspase-2 (#2224S). In addition, mouse […] antibody β-actin (C4; Santa Cruz Biotechnology, CA, USA) was used as a loading control, it was washed with 1×PBS/0.1% Tween 20, and the binding protein was detected using HRP-binding secondary antibody and improved chemiluminescence detection system. The remaining conditions of Western blotting were the same as in Example 3, and the image of the band was obtained by Amersham Imager 600 system (GE Healthcare Life Science) or X-Ray film (AG, HealthCare, SC, USA) and it was shown in FIG. 5.

MCF7 cells [2] = assay: Colony formation analysis; details: MCF7, cultured 15 days, compared to DMSO, FIG. 7
Protocol: Colony formation analysis was performed to confirm whether the selected MKI-1 can effectively kill cancer cells. First, breast cancer cells MCF7 (500-1000 cells) were cultured in a 60 mm culture plate, and after 24 hours, it was treated with MASTL kinase inhibitors (AT13148, MKI-1 and GKI-1), respectively and cultured for 15 days. Cells were fixed and stained with […] to which methanol was added to quantify the number of colonies, which was shown in FIG. 7.

MCF7 cells [3] = assay: Tumorsphere formation assay; details: MCF7, cultured 15 days, compared to DMSO, FIG. 8
Protocol: A tumorsphere formation assay was performed in order to determine whether the selected MKI-1 can effectively reduce the formation of tumorsphere in cancer cells, Breast cancer cells MCF7 (2500-10000 cells) was suspended in serum-free DMEM/F12 (weIGENE) containing 1% penicillin, B-27 (1:50; invitrogen), 20 ng/mL epidermal cell growth factor (R&D Systems) and 20 ng/mL fibroblast growth factor (R&D Systems) and cultured on plates with low adhesion rate. After 24 hours, the cells were treated with MASTL kinase inhibitors (AT13148, MKI-1 and GKI-1), respectively, and cultured for 15 days, and then the diameter of the tumorsphere was measured and quantified, which was shown in FIG. 8.

[4] = tested on: CD44^high/CD24^low MCF7 cells; assay: Colonogenic assay and western blotting with 2.5 Gy radiation, radioresistant CD44high/CD24low MCF7; details: for sensitivity to radiation therapy (colony number): CD44high/CD24low MCF7, 2.5 Gy, compared to DMSO, FIG. 11A/11B
Protocol: A colonogenic assay was performed in order to confirm whether the sensitivity to the radiation treatment effect was increased even in the CD44^high/CD24^low MCF7 cancer cell line having a radioresistant phenotype, when it was treated with MKI-1. First, breast cancer cells CD44^high/CD24^low MCF7 (500-1000 cells) were placed in a 60-mm tissue culture medium on a 60 mm culture plate, and treated with MASTL kinase inhibitors (AT13148, MKI-1 and GKI-1), respectively, and then was treated with 2.5 Gy radiation by Biobeam GM8000 (Gamma-Gamma-Service Medical GmbH, Leipzig, Germany) and the control group was not treated with radiation. After 10 to 14 days, the cell colonies were fixed with methanol and stained with 0.5% crystal violet, and the results were shown in FIG. 11A, and the number of colonies shown in the above results was quantified using Image J software to show in 11B, and then western blotting was performed and the results thereof were shown in FIG. 11C.

[5] = screen of 42 single compounds, FIG. 1A
[6] = CD44high/CD24low MCF7, after radiation treatment, FIG. 11C

Row | Structure (SMILES) | survival rate of cancer cells, MCF7 (MCF7 cells [1]; 33.33 μM or more, FIG. 6) | cell viability, MCF7 (MCF7 cells [1]; FIG. 6) | growth of the treated cancer cell line (MCF7) (MCF7 cells [1]; [5]) | cell viability, normal cell line MCF10A (MCF10A cells) | cell viability of normal cell line (MCF10A) (MCF10A cells; [5]) | expression level of phosphorylated H3 (phospho-H3 (S10)) | number of cancer cell colonies (MCF7 cells [2]) | tumorsphere diameter (MCF7 cells [3]) | sensitivity to radiation therapy (colony number) [4] | expression levels of cleaved-PARP and phosphorylated Chk2 [4, 6] | expression levels of procaspase-2 [4, 6]
1 | O=C(Nc1nc2ccccc2[nH]1)c1cccc(-n2cccc2)c1 [MKI-1, N-1H-benzimidazol-2-yl-3-(1H-pyrrol-1-yl) benzamide] | significantly reduced | decreases cell viability in a dose-dependent manner | significantly inhibited | hardly decrease cell viability | maintained as high as that of the control group DMSO | increased the expression level of phosphorylated H3 in a dose-dependent manner | significantly reduced | significantly decreased | significant increase in sensitivity to radiation treatment | increased | decreased
2 | Clc1ccc(Nc2cccc(-c3cn[nH]c3)c2)cc1 [GKI-1, N-(4-chlorophenyl)-3-(1H-pyrazol-4-yl)aniline, reference compound] | – | decreases cell viability in a dose-dependent manner | – | hardly decrease cell viability | – | – | hardly decreased | hardly decreased | no synergistic effect | – | –
